Experimental data: patent US9249127B2 (Orion Corporation, priority 2012, dated 2016)
Like-named read-outs stand apart in the source and are kept apart here.

Target: T1, alpha2A receptor (Homo sapiens, UniProt P08913)
T1 sequence (P08913 1-465): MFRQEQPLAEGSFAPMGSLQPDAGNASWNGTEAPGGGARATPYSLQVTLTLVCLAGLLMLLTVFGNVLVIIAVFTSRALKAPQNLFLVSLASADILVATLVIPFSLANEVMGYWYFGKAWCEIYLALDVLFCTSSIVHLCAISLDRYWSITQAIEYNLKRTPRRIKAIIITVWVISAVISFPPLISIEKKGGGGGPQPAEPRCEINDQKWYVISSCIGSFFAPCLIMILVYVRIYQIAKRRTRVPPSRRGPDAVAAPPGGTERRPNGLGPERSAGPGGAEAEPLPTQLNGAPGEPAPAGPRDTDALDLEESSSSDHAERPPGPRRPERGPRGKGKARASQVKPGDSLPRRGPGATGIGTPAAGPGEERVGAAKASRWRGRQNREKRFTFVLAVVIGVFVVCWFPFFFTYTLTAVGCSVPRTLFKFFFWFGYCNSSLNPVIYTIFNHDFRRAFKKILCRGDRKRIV
Assay: Alpha2A agonistic activity in vitro
Format: cell-based

[1] = in vitro, read-out: Alpha2A Agonism pEC50 (converted)
[2] = Alpha2A Agonism pEC50, in vitro

| SMILES | Alpha2A Intrinsic Activity (in vitro) | EC50 [1] | EC50 [2] |
| --- | --- | --- | --- |
| CC1(C2=NCCN2)SCCc2c(Br)cccc21 (stereo not shown) [Example 66, 2-(5-Bromo-1-methylisothiochroman-1-yl)-4,5-dihydro-1H-imidazole] | 0.43 | 1580 nM | – |
| c1cc(-c2ccoc2)c2c(c1)C(C1=NCCN1)OCC2 (stereo not shown) [Example 54, 2-(5-(Furan-3-yl)isochroman-1-yl)-4,5-dihydro-1H-imidazole] | 0.16 | 1000 nM | – |
| Cc1cc(O)cc2c1CCOC2C1=NCCN1 (stereo not shown) [Example 75, 1-(4,5-Dihydro-1H-imidazol-2-yl)-5-methylisochroman-7-ol] | 0.64 | 631 nM | – |
| Cc1cc(Br)cc2c1CCOC2C1=NCCN1 (stereo not shown) [Example 60, 2-(7-Bromo-5-methylisochroman-1-yl)-4,5-dihydro-1H-imidazole] | 0.66 | 126 nM | – |
| COc1cccc2c1CCSC2C1=NCCN1 (stereo not shown) [Example 70, 2-(5-Methoxyisothiochroman-1-yl)-4,5-dihydro-1H-imidazole] | 0.07 | 2000 nM | – |
| COc1cccc2c1CCOC2C1=NCCN1 (single isomer, unassigned) [Example 97, 2-(5-methoxyoisochroman-1-yl)-4,5-dihydro-1H-Imidazole] | 0.69 | 15.8 nM | – |
| CCC1Cc2c(O)cccc2C(C2=NCCN2)O1 (stereo not shown) [Example 76, 1-(4,5-Dihydro-1H-imidazol-2-yl)-3-ethylisochroman-5-ol] | 0.15 | 631 nM | – |
| Cc1cccc2c1CCOC2(C)C1=NCCN1 (stereo not shown) [Example 3, 2-(1,5-Dimethylisochroman-1-yl)-4,5-dihydro-1H-imidazole] | 0.95 | – | 63.1 nM |
| COc1cccc2c1C[C@@H](C)OC2C1=NCCN1 (stereo partly drawn) [Example 44, 2-((3R)-5-methoxy-3-methylisochroman-1-yl)-4,5-dihydro-1H-imidazole] | 0.83 | – | 7.94 nM |
| CC[C@@H]1Cc2c(OC)cccc2C(C2=NCCN2)O1 (stereo partly drawn) [Example 91, 2-((3R)-3-ethyl-5-methoxyisochroman-1-yl)-4,5-dihydro-1H-imidazole] | 0.51 | – | 39.8 nM |
| N#Cc1cccc2c1CCOC2C1=NCCN1 (stereo not shown) [Example 5, 1-(4,5-Dihydro-1H-imidazol-2-yl)isochroman-5-carbonitrile] | 0.59 | 1260 nM | – |
| FC(F)(F)Cc1cccc2c1CCOC2C1=NCCN1 (stereo not shown) [Example 72, 2-(5-(2,2,2-Trifluoroethyl)isochroman-1-yl)-4,5-dihydro-1H-imidazole] | 0.09 | 1580 nM | – |
| COc1cccc2c1CCOC2C1=NCCN1 (single isomer, unassigned) [Example 82, 2-(5-methoxyisochroman-1-yl)-4,5-dihydro-1H-imidazole] | 0.52 | 158 nM | – |
| CC1OC(C2=NCCN2)c2cccc3cccc1c23 (stereo not shown) [Example 104, 2-(3-Methyl-1,3-dihydrobenzo[de]isochromen-1-yl)-4,5-dihydro-1H-imidazole] | 0.95 | – | 3.16 nM |
| COc1cccc2c1CCOC2(C)C1=NCCN1 (stereo not shown) [Example 69, 2-(5-Methoxy-1-methylisochroman-1-yl)-4,5-dihydro-1H-imidazole] | 0.19 | – | – |
| FC(F)Oc1cccc2c1CCOC2C1=NCCN1 (stereo not shown) [Example 90, 2-(5-(Difluoromethoxy)isochroman-1-yl)-4,5-dihydro-1H-imidazole] | 0.66 | – | 39.8 nM |
